According to PMC8677862, “Substrate binding modes of purine and pyrimidine nucleotides to human ecto-5′-nucleotidase (CD73) and inhibition by their bisphosphonic acid derivatives” (Purinergic Signalling, 2021):
“And” between values parts separate entries of the source, which are not always exact repeats. Equal values may be shown once. Where a name gives a salt, the structure may show the parent alone. Read-outs that look alike come from different tables or passages of the source. Each block holds one compound with its values, some of them ahead of it.

What was measured:
CD73 [1] = biological target: T1, CD73 (Homo sapiens, UniProt P21589, K145S/K147S/K478S/N311D/N333D/N403D/N53D/T376A); experiment: Crystallographic fragment screening by crystal soaking, open form of CD73; assay type: binding
T1 construct: His6 (C); made in house
T1 sequence (P21589 27-549 N53D/K145S/K147S/N311D/N333D/T376A/N403D/K478S limits assumed): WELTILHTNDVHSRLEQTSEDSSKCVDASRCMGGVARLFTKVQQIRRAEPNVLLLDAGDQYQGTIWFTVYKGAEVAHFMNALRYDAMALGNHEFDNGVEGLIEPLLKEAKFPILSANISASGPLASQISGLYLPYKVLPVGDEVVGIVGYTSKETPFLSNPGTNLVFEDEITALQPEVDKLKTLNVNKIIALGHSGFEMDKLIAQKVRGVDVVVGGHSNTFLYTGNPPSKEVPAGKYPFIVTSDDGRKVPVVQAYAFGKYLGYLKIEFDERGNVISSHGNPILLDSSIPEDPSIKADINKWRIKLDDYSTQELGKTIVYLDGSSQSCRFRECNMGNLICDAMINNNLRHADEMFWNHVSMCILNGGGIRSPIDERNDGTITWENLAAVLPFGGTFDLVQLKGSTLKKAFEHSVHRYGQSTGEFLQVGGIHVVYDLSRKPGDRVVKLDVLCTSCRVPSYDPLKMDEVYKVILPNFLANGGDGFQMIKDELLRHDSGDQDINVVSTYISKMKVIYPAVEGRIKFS
Protocol: Purified CD73 was concentrated to 7 mg/mL, and hanging drop crystallizations were set up versus 100 mM Tris pH 7.8 and 10% PEG6000, using equal amounts of protein and reservoir solution. Crystallisation experiments were carried out at 19 °C. Following crystal formation (1–2 days), the crystals were transferred to soaking solution containing reservoir solution with additional commercially available nucleotides or fragments (see Table S1) at concentrations between 2 and 100 mM. Crystals were then transferred to cryo solution containing an additional 20% glycerol, soaked for ~ 2–5 min and flash frozen in liquid nitrogen.
X-ray data collection was carried out at 100 K using a wavelength of 0.91841 Å on beamline 14.1 of the Berlin Synchrotron (BESSY, Berlin, Germany) equipped with a PILATUS 6 M detector [43]. All datasets were indexed, integrated, scaled and converted to structure factor amplitudes using XDSAPP [44] and AIMLESS [45]. The crystals belong to crystal form II of CD73 (pdb id 4h1y), which was used as a starting model for refinement. Coot and REFMAC5 [47] were used for model building and refinement. The final structures were validated using PROCHECK [48] and outliers in the Ramachandran plot were checked manually.
The HZB fragment library used for this work contains 102 compounds [41]. […] The presence of 12 compounds containing a nucleoside moiety in the fragment library contributed to the high hit rate of 23.5%.

CD73 [2] = settings: competitive inhibitor of CD73, cited from earlier work
CD73 [3] = biological target: T1, CD73; experiment: Michaelis–Menten kinetics of CD73-mediated AMP hydrolysis, malachite green assay; assay type: biochemical; settings: AMP 5-200 μM, 1.25 ng CD73
Protocol: In this study, enzyme activity and inhibition data was characterised using a modified malachite green assay. Each assay consisted of reaction buffer A (50 mM Tris–HCl pH 7.5, 100 mM NaCl, 1 mM MgCl2) to which the appropriate substrate and/or inhibitors (see Table S1) were added. Dissolved compounds were immediately used for the inhibition assays. The reactions were generally initiated by the addition of protein. The protein concentrations, substrates and inhibitors used for the various experiments are detailed below. In all experiments, reactions were monitored over a 10-min period during which samples were taken at regular intervals. At each desired time point, a malachite green/molybdate (1:1) solution was added to the sample, which simultaneously terminated the assay and also allowed the detection of the produced phosphate ions. These reaction mixtures were incubated at 25 °C for 25 min, followed by measurement of the absorbance at 620 nm. […]
The specific activity (μmol Pi/min/mg protein) was calculated from the initial reaction rates and was used to determine when the protein refolding process had reached completion. […] Kinetic values were determined by fitting the Michaelis–Menten equation to the initial reaction rates using GraphPad Prism (GraphPad Software, La Jolla, CA, USA). […]

CD73 [4] = settings: cited from earlier work; for Km: AMP as substrate; for specific activity: AMP; for turnover rate: substrate of CD73
rat CD73 [5] = settings: cited from earlier work
[6] = parameters: method as in earlier work; settings: last proton on the β-phosphonate group; cited from earlier work
CD73 [7] = biological target: T1, CD73; experiment: Substrate preference of CD73 for nucleoside monophosphates, malachite green assay; assay type: biochemical; settings: 1 mM substrate; for percentage activity relative to AMP (100%): 1.25 ng CD73; for decrease in absolute activity (relative to AMP) compared with the ribonucleotide equivalent: deoxyribo form vs ribo form
Protocol: Each assay consisted of reaction buffer A (50 mM Tris–HCl pH 7.5, 100 mM NaCl, 1 mM MgCl2) to which the appropriate substrate and/or inhibitors (see Table S1) were added. Dissolved compounds were immediately used for the inhibition assays. The reactions were generally initiated by the addition of protein. The protein concentrations, substrates and inhibitors used for the various experiments are detailed below. In all experiments, reactions were monitored over a 10-min period during which samples were taken at regular intervals. At each desired time point, a malachite green/molybdate (1:1) solution was added to the sample, which simultaneously terminated the assay and also allowed the detection of the produced phosphate ions. These reaction mixtures were incubated at 25 °C for 25 min, followed by measurement of the absorbance at 620 nm. A standard curve (0–50 μM orthophosphate) was performed prior to each assay and was used to calculate the phosphate concentration. All measurements were carried out in triplicate. […] The specific activity (μmol Pi/min/mg protein) was calculated from the initial reaction rates and was used to determine when the protein refolding process had reached completion. […] Kinetic values were determined by fitting the Michaelis–Menten equation to the initial reaction rates using GraphPad Prism (GraphPad Software, La Jolla, CA, USA).

CD73 [8] = biological target: T1, CD73; experiment: CD73 inhibition, malachite green assay; assay type: biochemical
Protocol: In this study, enzyme activity and inhibition data was characterised using a modified malachite green assay. Each assay consisted of reaction buffer A (50 mM Tris–HCl pH 7.5, 100 mM NaCl, 1 mM MgCl2) to which the appropriate substrate and/or inhibitors (see Table S1) were added. Dissolved compounds were immediately used for the inhibition assays. The reactions were generally initiated by the addition of protein. The protein concentrations, substrates and inhibitors used for the various experiments are detailed below. In all experiments, reactions were monitored over a 10-min period during which samples were taken at regular intervals. At each desired time point, a malachite green/molybdate (1:1) solution was added to the sample, which simultaneously terminated the assay and also allowed the detection of the produced phosphate ions. These reaction mixtures were incubated at 25 °C for 25 min, followed by measurement of the absorbance at 620 nm. A standard curve (0–50 μM orthophosphate) was performed prior to each assay and was used to calculate the phosphate concentration. All measurements were carried out in triplicate.
To study the inhibition kinetics of CD73 against a panel of commercially available nucleotide-diphosphate analogues (AMPCP, GMPCP, dUMPCP and CMPCP; see Table S1), their IC50 values were determined. In these tests, CD73 protein (1.25 ng) was incubated in reaction buffer A containing various inhibitor concentrations (0.015, 0.031, 0.061, 0.12, 0.24, 0.49, 0.98, 1.95, 3.91, 7.81, 15.62, 31.25, 62.5, 125, 250 and 500 μM). […] Dose–response curves were plotted in GraphPad Prism (GraphPad Prism Software, La Jolla, CA, USA), and the inflection point of each curve was used to determine the IC50 value of each inhibitor. The IC50 values were then used to calculate the Ki value of each inhibitor using the Cheng-Prusoff equation [51].

rat CD73 [9] = experiment: Literature inhibition of rat CD73; assay type: biochemical; settings: rat CD73, from literature Ki values
[10] = calculated from IC50 with the Cheng-Prusoff equation, human deglycosylated CD73 construct, read-out: Ki

- binding to the nucleoside binding site (crystal structure) (CD73 [1]): did bind to the nucleoside binding site
Structure (SMILES): O=[N+]([O-])c1ccc(O)c(O)c1 [4-nitrocatechol]

- binding to the nucleoside binding site (crystal structure) (CD73 [1]): did bind to the nucleoside binding site
Structure (SMILES): O=c1[nH]cc(I)c(=O)[nH]1 [5-iodouracil]

Structure (SMILES): Nc1ncnc2c1ncn2[C@@H]1O[C@H](COP(=O)(O)OP(=O)(O)O)[C@@H](O)[C@H]1O [ADP]
- Ki (CD73 [2]; ref 29): 3880 nM
- Ki (CD73 [2]; ref 32): 82 nM
- Ki (CD73 [2]; ref 33): 910 nM

- Vmax (CD73 [3]): 301.2 ± 2.9 U/mg
Structure (SMILES): Nc1ncnc2c1ncn2[C@@H]1O[C@H](COP(=O)(O)O)[C@@H](O)[C@H]1O [AMP, Adenosine 5'-monophosphate]
- Km (CD73 [4]; same construct after refolding): 6.6 µM and 7 µM
- Km (CD73 [4]; ref 8): 1 to 50 µM
- Km (CD73 [4]; ref 29): 59 µM
- specific activity (CD73 [4]; human CD73 purified from an adenocarcinoma cell line): 130 U/mg
- specific activity (CD73 [4]; this construct after refolding): 577.2 U/mg
- turnover rate (CD73 [4]): 856 nmol/min/mg

Structure (SMILES): Nc1ncnc2c1ncn2[C@@H]1O[C@H](COP(=O)(O)CP(=O)(O)O)[C@@H](O)[C@H]1O [AMPCP, Adenosin 5'-[α,β-methylene] diphosphoric acid]
- Ki (rat CD73 [5]): 197 ± 5 nM
- pKa [6]: 8.3

Structure (SMILES): Nc1ncnc2c1ncn2[C@@H]1O[C@H](COP(=O)(O)OP(=O)(O)OP(=O)(O)O)[C@@H](O)[C@H]1O [ATP]
- Ki (CD73 [2]; ref 32): 1500 nM
- Ki (CD73 [2]; ref 33): 8900 nM

- percentage activity relative to AMP (100%) (CD73 [7]): 73.4%
Structure (SMILES): Nc1ccn([C@@H]2O[C@H](COP(=O)(O)O)[C@@H](O)[C@H]2O)c(=O)n1 [CMP, Cytidine 5′-monophosphate]

- Ki (CD73 [8]; [10]): 304 ± 5.8 nM
- ratio Ki (CMPCP)/Ki (AMPCP) (CD73 [8]; human CD73 construct of this work): 5.1
- IC50 (CD73 [8]; read-out: IC50): 3200 ± 20 nM
- ratio Ki (CMPCP)/Ki (AMPCP) (rat CD73 [9]): 4.6
Structure (SMILES): Nc1ccn([C@@H]2O[C@H](COP(=O)(O)CP(=O)(O)O)[C@@H](O)[C@H]2O)c(=O)n1 [CMPCP, Cytidine-5'-[(α,β)-methyleno]diphosphate, Sodium salt]
- Ki (rat CD73 [5]): 898 ± 63 nM

- percentage activity relative to AMP (100%) (CD73 [7]): 33.2%
Structure (SMILES): Nc1nc2c(ncn2[C@@H]2O[C@H](COP(=O)([O-])[O-])[C@@H](O)[C@H]2O)c(=O)[nH]1.[Na+].[Na+] [GMP, Guanosin-5'-monophosphat Dinatriumsalz]

Structure (SMILES): Nc1nc2c(ncn2[C@@H]2O[C@H](COP(=O)(O)CP(=O)(O)O)[C@@H](O)[C@H]2O)c(=O)[nH]1 [GMPCP, α,β-Methyleneguanosine 5′-diphosphate sodium salt]
- IC50 (CD73 [8]): 1420 ± 20 nM
- Ki (CD73 [8]): 135 ± 2.7 nM

Structure (SMILES): NC(=O)c1ccc[n+]([C@@H]2O[C@H](COP(=O)([O-])OP(=O)(O)OC[C@H]3O[C@@H](n4cnc5c(N)ncnc54)[C@H](O)[C@@H]3O)[C@@H](O)[C@H]2O)c1 [NAD^+]
- turnover rate (CD73 [4]): 5 nmol/min/mg

- percentage activity relative to AMP (100%) (CD73 [7]): 87.1%
Structure (SMILES): O=c1ccn([C@@H]2O[C@H](COP(=O)([O-])[O-])[C@@H](O)[C@H]2O)c(=O)[nH]1.[Na+].[Na+] [UMP, Uridin-5'-Monophosphate Dinatriumsalz]

Structure (SMILES): O=c1ccn([C@@H]2O[C@H](COP(=O)(O)CP(=O)(O)O)[C@@H](O)[C@H]2O)c(=O)[nH]1 [UMPCP]
- Ki (rat CD73 [5]): 1830 ± 530 nM

Structure (SMILES): Cn1c(=O)c2c(ncn2C)n(C)c1=O [caffeine]
- binding to the nucleoside binding site (crystal structure) (CD73 [1]): did bind to the nucleoside binding site

- decrease in absolute activity (relative to AMP) compared with the ribonucleotide equivalent (CD73 [7]): 28.8%
Structure (SMILES): Nc1ncnc2c1ncn2[C@H]1C[C@H](O)[C@@H](COP(=O)(O)O)O1 [dAMP, 2′-Deoxyadenosine 5′-monophosphate]

- percentage activity relative to AMP (100%) (CD73 [7]): 47.6%
Structure (SMILES): Nc1ccn([C@H]2C[C@H](O)[C@@H](COP(=O)(O)O)O2)c(=O)n1 [dCMP, 2′-Deoxycytidine 5′-monophosphate]

- percentage activity relative to AMP (100%) (CD73 [7]): 4.8%
- decrease in absolute activity (relative to AMP) compared with the ribonucleotide equivalent (CD73 [7]): 28.4%
Structure (SMILES): Nc1nc2c(ncn2[C@H]2C[C@H](O)[C@@H](COP(=O)(O)O)O2)c(=O)[nH]1 [dGMP, 2′-Deoxyguanosine 5′-monophosphate]

- binding to the nucleoside binding site (crystal structure) (CD73 [1]): only low occupancy binding
- percentage activity relative to AMP (100%) (CD73 [7]): 49.4%
Structure (SMILES): Cc1cn([C@H]2C[C@H](O)[C@@H](COP(=O)([O-])[O-])O2)c(=O)[nH]c1=O.[Na+].[Na+] [dTMP, Thymidine 5'-Monophosphate Natriumsalz]

- Ki (CD73 [8]; [10]): 374 ± 6.9 nM
- loss in affinity (CD73 [8]; comparison between CMPCP and dUMPCP): 1.2 fold
- IC50 (CD73 [8]; read-out: IC50): 3940 ± 10 nM
Structure (SMILES): O=c1ccn([C@H]2C[C@H](O)[C@@H](COP(=O)(O)CP(=O)(O)O)O2)c(=O)[nH]1 [dUMPCP, 2'-Deoxyuridine-5'-[(α,β)-methyleno]diphosphate, Sodium salt]

Structure (SMILES): NC(=O)c1ccc[n+]([C@@H]2O[C@H](COP(=O)([O-])O)[C@@H](O)[C@H]2O)c1 [nicotinamide mononucleotide]
- turnover rate (CD73 [4]): 110 nmol/min/mg

- binding to the nucleoside binding site (crystal structure) (CD73 [1]): did bind to the nucleoside binding site
Structure (SMILES): Cc1cc2nc3c(=O)[nH]c(=O)nc-3n(C[C@H](O)[C@H](O)[C@H](O)CO)c2cc1C [riboflavin]
